Source: patent US10820591B2, “Substituted sulfonyl amides for controlling animal pests” (Bayer Aktiengesellschaft, priority 2016, dated 2020)

The compounds below were run on Meloidogyne incognita (assay: Meloidogyne incognita test (sand, lettuce, gall formation)). Settings: Meloidogyne incognita, 336 h, 4 ppm, after 14 days; read-out: nematicidal efficacy (formation of galls).
Type: in vivo
Protocol: Meloidogyne incognita Test [table] To produce a suitable active compound preparation, 1 part by weight of active compound is mixed with the stated amount of solvent and the concentrate is diluted to the desired concentration with water. Vessels are filled with sand, active compound solution, an egg/larvae suspension of the southern root-knot nematode (Meloidogyne incognita) and lettuce seeds. The lettuce seeds germinate and the plants develop. The galls develop on the roots. After 14 days, the nematicidal efficacy in % is determined by the formation of galls. 100% means that no galls were found; 0% means that the number of galls on the treated plants corresponds to the untreated control.
With `Cn1nc(C(=O)NS(=O)(=O)c2c(Cl)cccc2Cl)cc1-c1c(F)cccc1F` [I-145] the pest or weed control at 4 ppm was 90%. `O=C(NS(=O)(=O)c1c(Cl)cccc1Cl)c1cn(Cc2ccc(Cl)cc2)cn1` [I-149] was tested, and the pest or weed control at 4 ppm was 90%.

Same assay, conditions: Meloidogyne incognita, 336 h, 20 ppm, after 14 days; read-out: nematicidal efficacy (formation of galls)
Compound `COc1ccc(Cl)c(S(=O)(=O)NC(=O)c2ncn(CC(F)(F)C(F)(F)F)c2Cl)c1` [I-098] has a pest or weed control at 20 ppm of 90%. Compound `O=C(NS(=O)(=O)c1c(Cl)cccc1Cl)c1ncn(CC(F)(F)C(F)(F)F)c1Cl` [I-099] has a pest or weed control at 20 ppm of 70%. Work on `COc1ccc(Cl)c(S(=O)(=O)NC(=O)c2ncn(C(C)CC(F)(F)F)c2Cl)c1` (stereo not drawn) [I-100] yielded a pest or weed control at 20 ppm of 90%. With `CC(CC(F)(F)F)n1cnc(C(=O)NS(=O)(=O)c2c(Cl)cccc2Cl)c1Cl` (stereo not drawn) [I-101] the pest or weed control at 20 ppm was 100%. `CC(CC(F)(F)F)n1cnc(C(=O)NS(=O)(=O)c2ccccc2C(F)(F)F)c1Cl` (stereo not drawn) [I-102] gave a pest or weed control at 20 ppm of 100%. In the case of `COc1ccc(Cl)c(S(=O)(=O)NC(=O)c2ncn(C3CC3C(F)(F)F)c2Cl)c1` (stereo not drawn) [I-103], the pest or weed control at 20 ppm is reported as 100%. In the case of `CC(C)Oc1ccc(Cl)c(S(=O)(=O)NC(=O)c2ncn(C3CC3C(F)(F)F)c2Cl)c1` (stereo not drawn) [I-104], the pest or weed control at 20 ppm is reported as 100%. Compound `O=C(NS(=O)(=O)c1cc(C(F)(F)F)ccc1Cl)c1ncn(C2CC2C(F)(F)F)c1Cl` (stereo not drawn) [I-105] has a pest or weed control at 20 ppm of 90%. `COc1ccc(Cl)c(S(=O)(=O)NC(=O)c2nc(Br)n(CCC(F)(F)F)c2Br)c1` [I-108] gave a pest or weed control at 20 ppm of 100%. Compound `COc1ccc(Cl)c(S(=O)(=O)NC(=O)c2nc(C)n(-c3cc(Cl)cc(Cl)c3)c2Br)c1` [I-109] has a pest or weed control at 20 ppm of 100%. In the case of `COc1ccc(Cl)c(S(=O)(=O)NC(=O)c2nc(C)n(-c3cc(Cl)cc(Cl)c3)c2I)c1` [I-110], the pest or weed control at 20 ppm is reported as 100%. Work on `Cc1nc(C(=O)NS(=O)(=O)c2ccccc2Cl)c(Cl)n1-c1cc(Cl)cc(Cl)c1` [I-111] yielded a pest or weed control at 20 ppm of 100%. For `Cc1ccccc1S(=O)(=O)NC(=O)c1nc(C)n(-c2cc(Cl)cc(Cl)c2)c1Cl` [I-112], the pest or weed control at 20 ppm was 100%. For `O=C(NS(=O)(=O)c1ccccc1Cl)c1nc(Cl)n(-c2cc(Cl)cc(Cl)c2)c1Cl` [I-114], the pest or weed control at 20 ppm was 100%. Work on `Cc1ccccc1S(=O)(=O)NC(=O)c1nc(Cl)n(-c2cc(Cl)cc(Cl)c2)c1Cl` [I-115] yielded a pest or weed control at 20 ppm of 100%. For `CC(C)S(=O)(=O)NC(=O)c1cn(C)c(Cc2ccccc2Cl)n1` [I-117], the pest or weed control at 20 ppm was 90%. `Cn1cc(C(=O)NS(=O)(=O)c2ccccc2Cl)nc1Cc1cccc(Cl)c1` [I-119] gave a pest or weed control at 20 ppm of 90%. In the case of `O=C(NS(=O)(=O)c1cc(Cl)ccc1Cl)c1nc(Cl)n(CCC(F)(F)F)c1Cl` [I-123], the pest or weed control at 20 ppm is reported as 90%. In the case of `O=C(NS(=O)(=O)c1ccccc1Cl)c1nc(Cl)n(CCC(F)(F)F)c1Cl` [I-124], the pest or weed control at 20 ppm is reported as 100%. Work on `COc1ccc(S(=O)(=O)NC(=O)c2nc(Cl)n(CCC(F)(F)F)c2Cl)cc1` [I-125] yielded a pest or weed control at 20 ppm of 100%. `Cn1nc(C(=O)NS(C)(=O)=O)cc1-c1cccc(Cl)n1` [I-126] was tested, and the pest or weed control at 20 ppm was 100%. Work on `Cn1nc(C(=O)NS(C)(=O)=O)cc1-c1ncccc1Cl` [I-128] yielded a pest or weed control at 20 ppm of 70%. Compound `COc1ccc(Cl)c(S(=O)(=O)NC(=O)c2cc(-c3cccc(Cl)c3)n(C)n2)c1` [I-129] has a pest or weed control at 20 ppm of 90%. Work on `COc1ccc(Cl)c(S(=O)(=O)NC(=O)c2cc(-c3ccccc3Cl)n(C)n2)c1` [I-130] yielded a pest or weed control at 20 ppm of 90%. For `Cn1nc(C(=O)NS(=O)(=O)c2cc(Cl)ccc2Cl)cc1-c1ccc(Cl)cc1` [I-131], the pest or weed control at 20 ppm was 90%. Compound `Cn1nc(C(=O)NS(=O)(=O)c2cc(Cl)ccc2Cl)cc1-c1cccc(Cl)c1` [I-132] has a pest or weed control at 20 ppm of 90%. `Cn1nc(C(=O)NS(=O)(=O)c2cc(Cl)ccc2Cl)cc1-c1ccccc1` [I-133] showed a pest or weed control at 20 ppm of 70%. `Cn1nc(C(=O)NS(=O)(=O)c2cc(Cl)ccc2Cl)cc1-c1cc(Cl)cc(Cl)c1` [I-134] was tested, and the pest or weed control at 20 ppm was 100%. `Cn1nc(C(=O)NS(=O)(=O)c2cc(Cl)ccc2Cl)cc1-c1cccc(C(F)(F)F)c1` [I-135] gave a pest or weed control at 20 ppm of 90%. `Cn1nc(C(=O)NS(=O)(=O)c2cc(Cl)ccc2Cl)cc1-c1ncc(C(F)(F)F)cc1Cl` [I-136] was tested, and the pest or weed control at 20 ppm was 100%. With `COc1ccc(Cl)c(S(=O)(=O)NC(=O)c2cc(-c3cccc(C(F)(F)F)c3)n(C)n2)c1` [I-138] the pest or weed control at 20 ppm was 100%. For `COc1ccc(Cl)c(S(=O)(=O)NC(=O)c2cc(-c3ncc(C(F)(F)F)cc3Cl)n(C)n2)c1` [I-139], the pest or weed control at 20 ppm was 100%. For `Cn1nc(C(=O)NS(=O)(=O)c2cc(Cl)ccc2Cl)cc1-c1cc(F)cc(C(F)(F)F)c1` [I-140], the pest or weed control at 20 ppm was 100%. For `Cn1nc(C(=O)NS(=O)(=O)c2ccccc2Cl)cc1-c1c(F)cccc1F` [I-142], the pest or weed control at 20 ppm was 100%. For `Cn1nc(C(=O)NS(=O)(=O)c2cc(Cl)ccc2Cl)cc1-c1c(F)cccc1F` [I-143], the pest or weed control at 20 ppm was 90%. With `COc1ccc(Cl)c(S(=O)(=O)NC(=O)c2cc(-c3c(F)cccc3F)n(C)n2)c1` [I-144] the pest or weed control at 20 ppm was 90%. `Cn1nc(C(=O)NS(=O)(=O)c2c(Cl)cccc2Cl)cc1-c1c(F)cccc1F` [I-145] gave a pest or weed control at 20 ppm of 70%.
